One assay relates to HUVEC. The assay is described as follows: MTT cell viability assay, HUVEC. In kind it is cell-based. Conditions: Homo sapiens, MTT at 72h, n=3, mean±S.E.M, read-out: IC50 for EM-d-Rha, HUVEC. Here is the method: (§1) The viability of cancer cells was evaluated by MTT assay. Briefly, cells were inoculated in 96-well culture plates at the density of 1×10^4/well with complete medium containing 10% fetal calf serum in a final volume of 0.2 mL. Cells were incubated at 37°C for at least 24 hours to allow optimal attachment. When the cells reached 60% confluence, they were treated with Cisplatin, HCPT and emodin rhamnopyranosides derivatives in various concentrations, and incubated in a humidity-controlled 5%CO2 incubator at 37°C for 72 hours. Medium were exchanged once every 24 hours. Cell control group and blank group were set up in the same manner, with each group having six parallel wells. Cell survival was assessed by directly adding 22 μL of 5mg/mL MTT to 0.2 mL medium. After three hours, the formazan precipitate was dissolved in 200μL isopropanol per well, and completely mixed under room temperature. Afterwards, the optical density of each well was detected at 570 nm wavelength by iMark microplate reader (Bio-rad,USA). This experiment was repeated at least three times.
In general terms: Tetrazolium assays rely on reduction of a dye to a coloured formazan, in cell work by metabolically active cells.

For another assay, the system named is SGC-7901 cells. The assay is described as follows: MTT cell viability assay, SGC-7901. In kind it is cell-based. Conditions: Homo sapiens. Here is the method: as §1
Assay [1] has as its system Cyto C, caspase-3 and caspase-9 proteins in HepG2 cells. The experiment in a line: Western blot analysis of apoptotic proteins. In kind it is cell-based, Human. Conditions: HepG2, compared to control group. Here is the method: HepG2 cells were inoculated, cultured and harvested as described previously. Afterwards, the experiment was performed on ice. The harvested cell pellet was washed with cold PBS before being resuspended in 300μL cytosol lysis buffer through vortex. Then cells of all samples were lysed by sonication method on the ice using the ultrasonic cell disruptor (100 W for 30s×4 times). Total protein of each sample was measured by Bradford assay using protein quantification reagents from Bio-Rad. All samples were added 2×loading buffer before analyzing on 12% gels by SDS-PAGE. Then the proteins were transferred to nitrocellulose membranes by electro-blotting. The membranes were blocked in 1% bovine serum albumin (BSA) or 5% milk solution at room temperature for 30min, followed by incubation with the primary antibody against rabbit (Univ-bio, China) at 4°C overnight. The membranes were then washed three times with 1×TBST, each time last for 5 mins. The membranes were then incubated with the secondary antibodies for 3 h at 4°C, followed by washing with 1×TBST as described previously. Finally, the immuno-reactive bands were detected and documented using an enhanced chemiluminescent Western blotting system (Thermo-scientific, USA) on a Versa Doc imaging system.
(In general: Immunoblotting shows a protein as a band on a membrane.)

For another assay, the system named is HepG2 cells. The assay is described as follows: DNA ladder assay. In kind it is cell-based, Human. Conditions: HepG2, 2.5μM, 5.0μM and 10.0μM. Here is the method:
DNA ladder formation is an important criterion to determine cells apoptosis. To confirm the apoptosis induction effect, the analysis of DNA fragmentation was conducted. HepG2 cells in logarithmic growth phase were inoculated in 10cm diameter culture plates at a density of 5×10^5 cells with 12 mL complete medium containing 10% fetal calf serum, and allowed to attach at 37°C for 24 hours. Afterwards, cells were treated with EM-d-Rha and Cisplatin at a specific concentration. Cells were cultured and harvested as described previously. Finally, DNA of all samples was extracted using the apoptosis DNA ladder detection kit following the manufacturer’s instructions. The DNA fragmentation was assayed by electrophoresis on a 1.5% agarose gel containing […] ethidium bromide (EtBr) at 5V/cm for 2.5hours and photographed under ultraviolet. The size of the DNA fragmentation was compared with the marker (molecular weight standard).

By IC50 is commonly meant the concentration that inhibits the measured activity by half. The term inhibition denotes the change of the read-out against control, counted positive when it falls.

For the compound `CC(=O)O[C@@H]1[C@@H](O[C@@H]2O[C@@H](C)[C@H](O)[C@@H](OC(C)=O)[C@H]2OC(C)=O)[C@H](C)O[C@@H](Oc2cc(O)c3c(c2)C(=O)c2cc(C)cc(O)c2C3=O)[C@@H]1OC(C)=O` [S-8, 3-(2”,3”-Di-O-acetyl-α-L-rhamnopyranosyl-(1→4)-2’,3’-di-O-acetyl-α-L-rhamnopyranosyl)-emodin], the half-inhibitory concentration (IC50) with HUVEC was found to be 18.7 ± 3.9 µM; with SGC-7901 cells (MTT at 72h, n=3, mean±S.E.M, read-out: IC50 for EM-d-Rha, SGC-7901) it was 1990 ± 120 nM. In the assay with SGC-7901 cells (SCG-7901, 0.1μM, MTT 72h, read-out: The inhibition rate of EM-d-Rha), the inhibition at 0.1 µM came to 20.1 ± 0.18%. Also, the inhibition at 0.5 µM with SGC-7901 cells (SCG-7901, 0.5μM, MTT 72h, read-out: The inhibition rate of EM-d-Rha) came to 40.99 ± 0.02%. In the assay with SGC-7901 cells (SCG-7901, 2.5μM, MTT 72h, read-out: The inhibition rate of EM-d-Rha), the inhibition at 2.5 µM was 42.63 ± 0.02%. Further, the inhibition at 12.5 µM in the assay on SGC-7901 cells (SCG-7901, 12.5μM, MTT 72h, read-out: The inhibition rate of EM-d-Rha) came to 95.01 ± 0.01%. Further, in the assay with SGC-7901 cells (SCG-7901, 62.5μM, MTT 72h, read-out: The inhibition rate of EM-d-Rha), the inhibition at 62.5 µM came out at 94.33 ± 0.05%. The “Expression levels of Cyto C, caspase-3 and caspase-9 proteins (western-blot)” value in assay [1] is on record as “three proteins expression increased at a concentration-dependent manner”. Besides, the “DNA fragmentation (agarose gel electrophoresis)” value in the assay with HepG2 cells is listed as “typical ladder or fragmentation shape”.

Source of the values: paper PMC4684281, “Antitumor Effects and Mechanism of Novel Emodin Rhamnoside Derivatives against Human Cancer Cells In Vitro” (PLoS ONE, 2015).
